{"source": "patent US7192981B2", "about": "“3,4-dihydroxyhydrocinnamic acid derivative” (Bionutrigen Co., Ltd., priority 2005, dated 2007)", "key": {"[1]": {"system": "diabetic ob/ob mice", "experiment": "Blood glucose and glucose tolerance test in diabetic ob/ob mice", "format": "in vivo, mouse", "from_the_text": "Male C57BL/6 and C57BL/6 ob/ob mice were purchased from The Jackson Laboratory (Bar Harbor, Me.), and Sprague-Dawley (SD) rats were purchased from Charles River Laboratories (Wilmington, Mass.). The animals were maintained and bred under specific pathogen-free conditions and provided with sterile food and water ad libitum at the Animal Resources Centre, Faculty of Medicine, University of Calgary. The use and care of the animals used in this study were approved by the Animal Care Committee, Faculty of Medicine, University of Calgary.\nDHH105 was dissolved in DMSO and emulsified in olive oil (1:50 v/v). […] Blood glucose levels were measured with a glucometer (One Touch Ultra, Lifescan, Milpitas, Calif.) every morning between 9:00–10:00 a.m. just before injection of DHH105.\nTo determine whether treatment with DHH105 can decrease the blood glucose level in STZ-induced diabetic C57BL/6 mice (blood glucose levels>300 mg/dl), mice were treated with DHH105 (150 mg/kd) daily for 2 weeks. […] Blood glucose levels were measured at 0, 15, 30, 60, and 120 min after glucose injection.\nThe blood glucose lowering effect was further determined in ob/ob mice, a model of type 2 diabetes. […]"}, "[2]": {"system": "IRS-1", "experiment": "Phosphorylation of IRS-1 in adipocytes, immunoprecipitation and western blot", "format": "cell-based", "settings": "SD rat adipocytes, DHH105 2 h, vs untreated control", "procedure": "Adipocytes treated with DHH105 for 2 h or insulin for 10 min were homogenized in 5 ml lysis buffer (20 mM Tris, pH 7.4, 1% SDS, 10% glycerol, 150 mM NaCl, 2 mM EDTA, 20 mM NaF, 1 mM NaVO4, 2 mM sodium pyrophosphate, protease inhibitor cocktail, and phosphatase inhibitor cocktail) with a teflon pestle (15 strokes). Homogenized adipocytes were sonicated for 3 min and solubilized for 30 min. The homogenate was centrifuged at 3,000 g for 10 min at 4° C. The protein concentration of the lysate was determined by the Bradford method. After dilution (1 μg/μl protein concentration), the lysates were incubated with anti-insulin receptor-β (IR-β) antibody (Upstate Biotech, Charlottesville, Va.) or anti-IRS-1 antibody (Upstate Biotech) overnight at 4° C. Protein A Sepharose beads (100 μl, Amersham Pharmacia Biotech) were added and the mixture was gently rocked for 2 h at 4° C. […] The membranes were washed and the immunoreactive proteins were detected with an enhanced chemoluminescence western blot detection kit (Amersham Pharmacia Biotech). To examine whether DHH105 treatment increases autophosphorylation of the insulin receptor and its tyrosine kinase activity, the phosphorylation of IR-β and IRS-1 were measured by immunoprecipitation and western blot in DHH105-treated adipocytes from SD rats. […]"}, "[3]": {"system": "Akt/PKB", "experiment": "Akt/PKB phosphorylation in adipocytes, western blot", "format": "cell-based, rat", "settings": "500 μM, 4 h", "procedure": "Proteins were separated by 10% SDS-PAGE and transferred to a polyvinyl difluoride membrane (Amersham Pharmacia Biotech). After transfer, the membranes were blocked with 5% skim milk in Tris-buffered saline with Tween 20 (TBST; 0.05% Tween 20, 200 mM Tris-HCl, 500 mM NaCl, pH 7.5) for 1 h at room temperature. The membranes were incubated with anti-IR-β, anti-IRS-1, anti-phosphotyrosine, or anti-p85 PI3-kinase (Upstate Biotech); anti-Akt/PKB or anti-phospho-Akt/PKB (Cell Signalling Technology, Beverly, Mass.); anti-GLUT4 (Santa Cruz Biotechnology Inc., Santa Cruz, Calif.); or anti-β actin (Sigma) antibody in 5% bovine serum albumin in TBST for 1 h at room temperature or overnight at 4° C. After washing, the membranes were incubated with secondary antibodies labeled with horseradish peroxidase (HRP) in 5% skim milk in TBST for 1 h. The membranes were washed and the immunoreactive proteins were detected with an enhanced chemoluminescence western blot detection kit (Amersham Pharmacia Biotech)."}}}
{"smiles": "O=C(CCc1ccc(O)c(O)c1)OCc1cccc2ccccc12", "note": "[DHH105, 3,4-dihydroxyhydrocinnamic acid naphthalene methyl ester]", "values": [{"measurement": "time after first injection at which blood glucose levels began to decrease", "setting": "[1]; 150 mg/kg i.p. daily", "value": 4, "unit": "days"}, {"measurement": "blood glucose levels vs vehicle-treated control mice", "setting": "[1]; 150 mg/kg i.p. daily for 2 weeks", "value": "significantly lower"}, {"measurement": "phosphorylation of IRS-1", "setting": "[2]", "value": "increased"}, {"measurement": "amount of Akt/PKB protein", "setting": "[3]", "value": "did not change"}, {"measurement": "phosphorylated Akt/PKB", "setting": "[3]; vs untreated control", "value": "significantly increased"}]}
